# Assays:
# [1] = test system: rape; assay: Test B pre/postemergence rape; assay type: in vivo, Brassica napus
# In short: (§1)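 Herbicidal effect was estimated by eye on a ten-point control scale after plants spent twelve to sixteen days in a greenhouse following soil or foliar treatment. Foliar sprays targeted plants at one to four leaves; all doses were formulated in a non-phytotoxic solvent with surfactant.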
# [2] = test system: rice; assay: Test B flood test rice; assay type: in vivo, Oryza sativa
# In short: (§2)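 Read-out is a visual response score from 0 (no effect) to 10 (complete control), assigned by comparison with untreated controls. Treatment was applied at the 2-leaf stage, and plants stayed in the greenhouse for twelve to sixteen days before scoring.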
# [3] = test system: corn; assay: Test B pre/postemergence corn; assay type: in vivo, Zea mays
# In short: as §1
# [4] = test system: bamyardgrass; assay: Test B flood test barnyardgrass; assay type: in vivo, Echinochloa crus-galli
# In short: as §2
# [5] = test system: surinam grass; assay: Test B pre/postemergence surinam grass; assay type: in vivo, Brachiaria decumbens
# In short: as §1
# [6] = test system: purple nutsedge; assay: Test B pre/postemergence purple nutsedge; assay type: in vivo, Cyperus rotundus
# In short: as §1
# [7] = test system: pigweed; assay: Test B pre/postemergence pigweed; assay type: in vivo, Amaranthus retroflexus
# In short: as §1
# [8] = test system: morningglory; assay: Test B pre/postemergence morningglory; assay type: in vivo, Ipomoea hederacea
# In short: as §1
# [9] = test system: giant foxtail; assay: Test B pre/postemergence giant foxtail; assay type: in vivo, Setaria faberii
# In short: as §1
# [10] = test system: crabgrass; assay: Test B pre/postemergence crabgrass; assay type: in vivo, Digitaria sanguinalis
# In short: as §1
# [11] = test system: sugar beet; assay: Test B pre/postemergence sugar beet; assay type: in vivo, Beta vulgaris
# In short: as §1
# [12] = test system: wild oat; assay: Test B pre/postemergence wild oat; assay type: in vivo, Avena fatua
# In short: as §1
# [13] = test system: blackgrass; assay: Test B pre/postemergence blackgrass; assay type: in vivo, Alopecurus myosuroides
# In short: as §1
# [14] = test system: bedstraw; assay: Test B pre/postemergence bedstraw; assay type: in vivo, Galium aparine; conditions: Postemergence
# In short: as §1
# [15] = test system: cocklebur; assay: Test B pre/postemergence cocklebur; assay type: in vivo, Xanthium strumarium
# In short: as §1
# [16] = test system: wheat; assay: Test B pre/postemergence wheat; assay type: in vivo, Triticum aestivum
# In short: as §1
# [17] = Postemergence, Rate 62 g/ha, scale 0 to 10, 0 is no effect, 10 is complete control
# [18] = Postemergence, Rate 125 g/ha, scale of 0 to 10 where 0 is no effect and 10 is complete control
# [19] = Postemergence, Rate 250 g/ha, scale of 0 to 10, 0 is no effect, 10 is complete control
# [20] = Postemergence, Rate 500 g/ha, scale of 0 to 10 where 0 is no effect and 10 is complete control
# [21] = Preemergence, Rate 62 g/ha, scale 0 to 10 (0 no effect, 10 complete control)
# [22] = Preemergence, Rate 125 g/ha, scale of 0 to 10 where 0 is no effect and 10 is complete control
# [23] = Preemergence, Rate 250 g/ha, scale 0 to 10 (0 no effect, 10 complete control)
# [24] = Preemergence, Rate 500 g/ha, scale of 0 to 10 where 0 is no effect and 10 is complete control
# [25] = Rate 62 g/ha, flood test species, Pre-emergence, visual evaluation after twelve to sixteen days
# [26] = Rate 125 g/ha, under heading Pre-emergence, flood test species, visual evaluation after twelve to sixteen days
# [27] = Rate 250 g/ha, Pre-emergence (flood test species), scale 0 to 10, 0 is no effect, 10 is complete control
# [28] = Rate 500 g/ha, Pre-emergence section of Table B, 0 to 10 scale (0 no effect, 10 complete control)
structure (smiles),measurement,setting,value
CCOC(Cn1c(=O)on(C(=O)N(c2ccc(Cl)cc2)C(C)C)c1=O)OCC [Compound 633],"Plant response rating, Rape",[1]; [17],0
same,"Plant response rating, Rape",[1]; [18],0
same,Rape plant response rating,[1]; [19],0
same,"Plant response rating, Rape",[1]; [20],0
same,Rape plant response rating,[1]; [21],0
same,Rape plant response rating,[1]; [22],0
same,"Plant response rating, Rape",[1]; [23],1
same,"Plant response rating, Rape",[1]; [24],4
same,"Plant response rating, Rice (0 to 10 scale, 0 is no effect, 10 is complete control)",[2]; [25],0
same,"Rice plant response rating (0 to 10 scale, 0 is no effect, 10 is complete control)",[2]; [26],0
same,Rice plant response rating,[2]; [27],0
same,Rice plant response rating,[2]; [28],0
same,"Plant response rating, Corn",[3]; [17],0
same,"Plant response rating, Corn",[3]; [18],0
same,Corn plant response rating,[3]; [19],0
same,"Plant response rating, Corn",[3]; [20],0
same,Corn plant response rating,[3]; [21],0
same,Corn plant response rating,[3]; [22],0
same,"Plant response rating, Corn",[3]; [23],0
same,"Plant response rating, Corn",[3]; [24],2
same,"Plant response rating, Barnyardgrass (0 to 10 scale, 0 is no effect, 10 is complete control)",[4]; [25],0
same,"Barnyardgrass plant response rating (0 to 10 scale, 0 is no effect, 10 is complete control)",[4]; [26],0
same,Barnyardgrass plant response rating,[4]; [27],0
same,Barnyardgrass plant response rating,[4]; [28],0
same,"Plant response rating, B. signalgrass",[5]; [17],0
same,"Plant response rating, B. signalgrass",[5]; [18],0
same,B. signalgrass plant response rating,[5]; [19],0
same,"Plant response rating, B. signalgrass",[5]; [20],5
same,B. signalgrass plant response rating,[5]; [21],0
same,B. signalgrass plant response rating,[5]; [22],3
same,"Plant response rating, B. signalgrass",[5]; [23],6
same,"Plant response rating, B. signalgrass",[5]; [24],6
same,"Plant response rating, Nutsedge",[6]; [17],0
same,"Plant response rating, Nutsedge",[6]; [18],0
same,Nutsedge plant response rating,[6]; [19],0
same,"Plant response rating, Nutsedge",[6]; [20],0
same,Nutsedge plant response rating,[6]; [21],0
same,Nutsedge plant response rating,[6]; [22],0
same,"Plant response rating, Nutsedge",[6]; [23],0
same,"Plant response rating, Nutsedge",[6]; [24],0
same,"Plant response rating, Redroot pigweed",[7]; [17],0
same,"Plant response rating, Redroot pigweed",[7]; [18],0
same,Redroot pigweed plant response rating,[7]; [19],1
same,Redroot pigweed plant response rating,[7]; [21],0
same,Redroot pigweed plant response rating,[7]; [22],0
same,"Plant response rating, Redroot pigweed",[7]; [23],2
same,"Plant response rating, Redroot pigweed",[7]; [24],4
same,"Plant response rating, Morningglory",[8]; [17],1
same,"Plant response rating, Morningglory",[8]; [18],2
same,Morningglory plant response rating,[8]; [19],5
same,"Plant response rating, Morningglory",[8]; [20],5
same,Morningglory plant response rating,[8]; [21],0
same,Morningglory plant response rating,[8]; [22],0
same,"Plant response rating, Morningglory",[8]; [23],0
same,"Plant response rating, Morningglory",[8]; [24],0
same,"Plant response rating, Giant foxtail",[9]; [17],0
same,"Plant response rating, Giant foxtail",[9]; [18],0
same,Giant foxtail plant response rating,[9]; [19],3
same,"Plant response rating, Giant foxtail",[9]; [20],8
same,Giant foxtail plant response rating,[9]; [21],6
same,Giant foxtail plant response rating,[9]; [22],9
same,"Plant response rating, Giant foxtail",[9]; [23],10
same,"Plant response rating, Giant foxtail",[9]; [24],10
same,"Plant response rating, Crabgrass",[10]; [17],0
same,"Plant response rating, Crabgrass",[10]; [18],0
same,Crabgrass plant response rating,[10]; [19],3
same,"Plant response rating, Crabgrass",[10]; [20],9
same,Crabgrass plant response rating,[10]; [21],5
same,Crabgrass plant response rating,[10]; [22],8
same,"Plant response rating, Crabgrass",[10]; [23],9
same,"Plant response rating, Crabgrass",[10]; [24],9
same,"Plant response rating, Sugarbeets",[11]; [17],0
same,"Plant response rating, Sugarbeets",[11]; [18],0
same,Sugarbeets plant response rating,[11]; [19],0
same,Sugarbeets plant response rating,[11]; [21],0
same,Sugarbeets plant response rating,[11]; [22],0
same,"Plant response rating, Sugarbeets",[11]; [23],0
same,"Plant response rating, Sugarbeets",[11]; [24],0
same,"Plant response rating, Wild oats",[12]; [17],0
same,"Plant response rating, Wild oats",[12]; [18],0
same,Wild oats plant response rating,[12]; [19],0
same,Wild oats plant response rating,[12]; [21],0
same,Wild oats plant response rating,[12]; [22],2
same,"Plant response rating, Wild oats",[12]; [23],3
same,"Plant response rating, Wild oats",[12]; [24],5
same,"Plant response rating, Blackgrass",[13]; [17],0
same,"Plant response rating, Blackgrass",[13]; [18],0
same,Blackgrass plant response rating,[13]; [19],4
same,"Plant response rating, Blackgrass",[13]; [20],8
same,Blackgrass plant response rating,[13]; [21],0
same,Blackgrass plant response rating,[13]; [22],3
same,"Plant response rating, Blackgrass",[13]; [23],5
same,"Plant response rating, Blackgrass",[13]; [24],7
same,"Plant response rating, Bedstraw","[14]; Rate 62 g/ha, scale 0 to 10, 0 is no effect, 10 is complete control",0
same,"Plant response rating, Bedstraw","[14]; Rate 125 g/ha, scale of 0 to 10 where 0 is no effect and 10 is complete control",0
same,Bedstraw plant response rating,"[14]; Rate 250 g/ha, scale of 0 to 10, 0 is no effect, 10 is complete control",0
same,"Plant response rating, Cocklebur",[15]; [17],0
same,"Plant response rating, Cocklebur",[15]; [18],0
same,Cocklebur plant response rating,[15]; [19],0
same,"Plant response rating, Cocklebur",[15]; [20],0
same,Cocklebur plant response rating,[15]; [21],0
same,Cocklebur plant response rating,[15]; [22],0
same,"Plant response rating, Cocklebur",[15]; [23],0
same,"Plant response rating, Cocklebur",[15]; [24],0
same,"Plant response rating, Wheat",[16]; [17],0
same,"Plant response rating, Wheat",[16]; [18],0
same,Wheat plant response rating,[16]; [19],0
same,Wheat plant response rating,[16]; [21],0
same,Wheat plant response rating,[16]; [22],0
same,"Plant response rating, Wheat",[16]; [23],0
same,"Plant response rating, Wheat",[16]; [24],0
